Laboratory results taken from ChEMBL document CHEMBL4196033, “Potent hydrazone derivatives targeting esophageal cancer cells” (Eur J Med Chem, 2018).
The source made the active and inactive calls. The calls are words filed in the database; no cut-off is given here.

Tests used:
EC9706 [1] = experiment: Induction of apoptosis in human EC9706 cells assessed as early apoptotic cells at 8 uM after 48 hrs by Annexin V-FITC/propidium iodide staining based flow cytometry (reference value: 0.68 to 1.58%); assay type: functional
[2] = Selectivity index, ratio of IC50 for antiproliferative activity against human GES-1 cells after 72 hrs to IC50 for antiproliferative activity against human MGC803 cells after 72 hrs; assay type: toxicity, cell-based; conditions: GES-1 cells versus MGC803 cells, read-out: Ratio IC50
ECa-109 cell line [3] = experiment: Induction of morphological changes in human EC109 cells assessed as chromatin condensation after 48 hrs by Hoechst 33342 staining based fluorescence microscopic method; assay type: functional, cell-based
EC9706 [4] = experiment: Effect on Prxs-5 protein expression in human EC9706 cells at 2 to 8 uM after 48 hrs by Western blot analysis; assay type: functional, cell-based
EC9706 [5] = experiment: Induction of morphological changes in human EC9706 cells assessed as chromatin condensation after 48 hrs by Hoechst 33342 staining based fluorescence microscopic method; assay type: functional, cell-based
EC9706 [6] = experiment: Induction of apoptosis in human EC9706 cells assessed as late apoptotic cells at 4 uM after 48 hrs in presence of caspase inhibitor Z-VAD-FMK by Annexin V-FITC/propidium iodide staining based flow cytometry (reference value: 1.27%); assay type: functional
ECa-109 cell line [7] = experiment: Induction of ROS generation in human EC109 cells at 4 uM after 24 hrs by DCFH-DA staining based flow cytometry relative to control; assay type: functional
Mus musculus = experiment: Acute toxicity in C57BL/6 mouse assessed as histopathological changes in lung at 2 g/kg, ig measured for 2 weeks by hematoxylin and eosin staining based microscopic method; assay type: organism-based; conditions: in vivo, po, 2000 mg/kg, 336 h
EC9706 [8] = experiment: Induction of apoptosis in human EC9706 cells assessed as late apoptotic cells at 8 uM after 48 hrs in presence of caspase inhibitor Z-VAD-FMK by Annexin V-FITC/propidium iodide staining based flow cytometry (reference value: 1.27%); assay type: functional
ECa-109 cell line [9] = experiment: Induction of apoptosis in human EC109 cells assessed as increase in cleaved caspase-3 protein expression after 48 hrs by Western blot analysis; assay type: functional, cell-based

Q: Which Activity (EC9706 [1]) does the source give for `COc1ccc(/C=N/NC(=O)c2cccc(S(=O)(=O)N3CCOCC3)c2)c(O)c1` here?
A: 8.64 - 26%

Q: What about the selectivity ratio at 72 h [2] of the same molecule?
A: 7.2

Q: What about the Activity (ECa-109 cell line [3]) of the same molecule?
A: Dose-dependent effect

Q: And the Activity (EC9706 [4])?
A: Active

Q: What about the Activity (EC9706 [5]) of the same molecule?
A: Dose-dependent effect

Q: What about the Activity (EC9706 [6]) of the same molecule?
A: 20.7%

Q: What about the “fold change (FC)” value (ECa-109 cell line [7]) of the same molecule?
A: 2.05

Q: And the Activity (Mus musculus)?
A: Non-Toxic

Q: And the Activity (EC9706 [8])?
A: 25%

Q: And the Activity (ECa-109 cell line [9])?
A: Dose-dependent effect
